# Test: (§1) The drug is tested on Z-028 corresponding to mouse gut metagenome with ENA study accession number: PRJEB37062 and ENA sample accession number: ERS12561827 for biotransformation under anaerobic condition. The drug concentrations were measured over 9 timepoints collected between 0 and 24 hours of incubation by liquid-chromatography-coupled mass spectrometry (LC–MS)
# Settings: 2 µM
# Also: call rule not given here.
row,SMILES,Bacterial Biotransformation
1,O=C1CN2Cc3c(ccc(Cl)c3Cl)N=C2N1 [ANAGRELIDE],Compound NOT metabolized
2,CN(C)C(=O)Oc1cc(OC(=O)N(C)C)cc(C(O)CNC(C)(C)C)c1 (centres undefined) [BAMBUTEROL],Compound NOT metabolized
3,CCc1oc2ccccc2c1C(=O)c1cc(Br)c(O)c(Br)c1 [BENZBROMARONE],Compound metabolized
4,CC(C)C[C@H]1C(=O)N2CCC[C@H]2[C@]2(O)O[C@](NC(=O)[C@@H]3C=C4c5cccc6[nH]c(Br)c(c56)C[C@H]4N(C)C3)(C(C)C)C(=O)N12.CS(=O)(=O)O [BROMOCRIPTINE MESYLATE],Compound metabolized
5,CC(NC(C)(C)C)C(=O)c1cccc(Cl)c1 (centres undefined) [BUPROPION],Compound NOT metabolized

# Test: as §1, with “WLS-370” for “Z-028”, “human” for “mouse”, “ERS12561793” for “ERS12561827”
# Settings: 2 µM
row,SMILES,Bacterial Biotransformation
1,O=C1CN2Cc3c(ccc(Cl)c3Cl)N=C2N1 [ANAGRELIDE],Compound NOT metabolized
2,CN(C)C(=O)Oc1cc(OC(=O)N(C)C)cc(C(O)CNC(C)(C)C)c1 (centres undefined) [BAMBUTEROL],Compound NOT metabolized
3,CCc1oc2ccccc2c1C(=O)c1cc(Br)c(O)c(Br)c1 [BENZBROMARONE],Compound NOT metabolized
4,CC(C)C[C@H]1C(=O)N2CCC[C@H]2[C@]2(O)O[C@](NC(=O)[C@@H]3C=C4c5cccc6[nH]c(Br)c(c56)C[C@H]4N(C)C3)(C(C)C)C(=O)N12.CS(=O)(=O)O [BROMOCRIPTINE MESYLATE],Compound metabolized
5,CC(NC(C)(C)C)C(=O)c1cccc(Cl)c1 (centres undefined) [BUPROPION],Compound NOT metabolized

# Test: as §1, with “WLS-006” for “Z-028”, “human” for “mouse”, “ERS12561741” for “ERS12561827”
# Settings: 2 µM
row,SMILES,Bacterial Biotransformation
1,O=C1CN2Cc3c(ccc(Cl)c3Cl)N=C2N1 [ANAGRELIDE],Compound metabolized
2,CN(C)C(=O)Oc1cc(OC(=O)N(C)C)cc(C(O)CNC(C)(C)C)c1 (centres undefined) [BAMBUTEROL],Compound metabolized
3,CCc1oc2ccccc2c1C(=O)c1cc(Br)c(O)c(Br)c1 [BENZBROMARONE],Compound metabolized
4,CC(C)C[C@H]1C(=O)N2CCC[C@H]2[C@]2(O)O[C@](NC(=O)[C@@H]3C=C4c5cccc6[nH]c(Br)c(c56)C[C@H]4N(C)C3)(C(C)C)C(=O)N12.CS(=O)(=O)O [BROMOCRIPTINE MESYLATE],Compound metabolized
5,CC(NC(C)(C)C)C(=O)c1cccc(Cl)c1 (centres undefined) [BUPROPION],Compound metabolized

# Settings: human gut metagenome, 24 h, 2 µM
row,SMILES,Bacterial Biotransformation
1,O=C1CN2Cc3c(ccc(Cl)c3Cl)N=C2N1 [ANAGRELIDE],Compound NOT metabolized
2,CN(C)C(=O)Oc1cc(OC(=O)N(C)C)cc(C(O)CNC(C)(C)C)c1 (centres undefined) [BAMBUTEROL],Compound metabolized
3,CCc1oc2ccccc2c1C(=O)c1cc(Br)c(O)c(Br)c1 [BENZBROMARONE],Compound metabolized
4,CC(C)C[C@H]1C(=O)N2CCC[C@H]2[C@]2(O)O[C@](NC(=O)[C@@H]3C=C4c5cccc6[nH]c(Br)c(c56)C[C@H]4N(C)C3)(C(C)C)C(=O)N12.CS(=O)(=O)O [BROMOCRIPTINE MESYLATE],Compound metabolized
5,CC(NC(C)(C)C)C(=O)c1cccc(Cl)c1 (centres undefined) [BUPROPION],Compound NOT metabolized

# Settings: human gut metagenome, 24 h, 2 µM
# Remark: another data set of the same source
row,SMILES,Bacterial Biotransformation
1,O=C1CN2Cc3c(ccc(Cl)c3Cl)N=C2N1 [ANAGRELIDE],Compound NOT metabolized
2,CN(C)C(=O)Oc1cc(OC(=O)N(C)C)cc(C(O)CNC(C)(C)C)c1 (centres undefined) [BAMBUTEROL],Compound NOT metabolized
3,CCc1oc2ccccc2c1C(=O)c1cc(Br)c(O)c(Br)c1 [BENZBROMARONE],Compound NOT metabolized
4,CC(C)C[C@H]1C(=O)N2CCC[C@H]2[C@]2(O)O[C@](NC(=O)[C@@H]3C=C4c5cccc6[nH]c(Br)c(c56)C[C@H]4N(C)C3)(C(C)C)C(=O)N12.CS(=O)(=O)O [BROMOCRIPTINE MESYLATE],Compound metabolized
5,CC(NC(C)(C)C)C(=O)c1cccc(Cl)c1 (centres undefined) [BUPROPION],Compound NOT metabolized

# Settings: human gut metagenome, 24 h, 2 µM
# Remark: another data set of the same source
row,SMILES,Bacterial Biotransformation
1,O=C1CN2Cc3c(ccc(Cl)c3Cl)N=C2N1 [ANAGRELIDE],Compound NOT metabolized
2,CN(C)C(=O)Oc1cc(OC(=O)N(C)C)cc(C(O)CNC(C)(C)C)c1 (centres undefined) [BAMBUTEROL],Compound NOT metabolized
3,CCc1oc2ccccc2c1C(=O)c1cc(Br)c(O)c(Br)c1 [BENZBROMARONE],Compound metabolized
4,CC(C)C[C@H]1C(=O)N2CCC[C@H]2[C@]2(O)O[C@](NC(=O)[C@@H]3C=C4c5cccc6[nH]c(Br)c(c56)C[C@H]4N(C)C3)(C(C)C)C(=O)N12.CS(=O)(=O)O [BROMOCRIPTINE MESYLATE],Compound NOT metabolized
5,CC(NC(C)(C)C)C(=O)c1cccc(Cl)c1 (centres undefined) [BUPROPION],Compound metabolized

# Settings: human gut metagenome, 24 h, 2 µM
# Remark: another data set of the same source
row,SMILES,Bacterial Biotransformation
1,O=C1CN2Cc3c(ccc(Cl)c3Cl)N=C2N1 [ANAGRELIDE],Compound NOT metabolized
2,CN(C)C(=O)Oc1cc(OC(=O)N(C)C)cc(C(O)CNC(C)(C)C)c1 (centres undefined) [BAMBUTEROL],Compound NOT metabolized
3,CCc1oc2ccccc2c1C(=O)c1cc(Br)c(O)c(Br)c1 [BENZBROMARONE],Compound NOT metabolized
4,CC(C)C[C@H]1C(=O)N2CCC[C@H]2[C@]2(O)O[C@](NC(=O)[C@@H]3C=C4c5cccc6[nH]c(Br)c(c56)C[C@H]4N(C)C3)(C(C)C)C(=O)N12.CS(=O)(=O)O [BROMOCRIPTINE MESYLATE],Compound NOT metabolized
5,CC(NC(C)(C)C)C(=O)c1cccc(Cl)c1 (centres undefined) [BUPROPION],Compound NOT metabolized

# Settings: human gut metagenome, 24 h, 2 µM
# Remark: another data set of the same source
row,SMILES,Bacterial Biotransformation
1,O=C1CN2Cc3c(ccc(Cl)c3Cl)N=C2N1 [ANAGRELIDE],Compound NOT metabolized
2,CN(C)C(=O)Oc1cc(OC(=O)N(C)C)cc(C(O)CNC(C)(C)C)c1 (centres undefined) [BAMBUTEROL],Compound NOT metabolized
3,CCc1oc2ccccc2c1C(=O)c1cc(Br)c(O)c(Br)c1 [BENZBROMARONE],Compound NOT metabolized
4,CC(NC(C)(C)C)C(=O)c1cccc(Cl)c1 (centres undefined) [BUPROPION],Compound NOT metabolized

# Settings: human gut metagenome, 24 h, 2 µM
# Remark: another data set of the same source
row,SMILES,Bacterial Biotransformation
1,O=C1CN2Cc3c(ccc(Cl)c3Cl)N=C2N1 [ANAGRELIDE],Compound metabolized
2,CN(C)C(=O)Oc1cc(OC(=O)N(C)C)cc(C(O)CNC(C)(C)C)c1 (centres undefined) [BAMBUTEROL],Compound NOT metabolized
3,CCc1oc2ccccc2c1C(=O)c1cc(Br)c(O)c(Br)c1 [BENZBROMARONE],Compound metabolized
4,CC(C)C[C@H]1C(=O)N2CCC[C@H]2[C@]2(O)O[C@](NC(=O)[C@@H]3C=C4c5cccc6[nH]c(Br)c(c56)C[C@H]4N(C)C3)(C(C)C)C(=O)N12.CS(=O)(=O)O [BROMOCRIPTINE MESYLATE],Compound metabolized
5,CC(NC(C)(C)C)C(=O)c1cccc(Cl)c1 (centres undefined) [BUPROPION],Compound metabolized

# Source: ChEMBL document CHEMBL5724914, “Linking interpersonal differences in gut microbiota composition and drug biotransformation activity” (2024)
